Measurements: US20250129054A1 (Terran Biosciences Inc., priority 2022, published 2025)
Structures can show the parent of a compound that is named as a salt.

Assay: Serial tail vein bleed PK study in SD rats: methylone measured in plasma after IV or oral methylone or oral methylone prodrugs
Type: in vivo, Sprague Dawley rats
Conditions: for Plasma Concentrations of metabolite methylone: 10 mg/kg, rat; for Tlast: analyte methylone in plasma, oral methylone THP 1-ethyl ester prodrug 10 mg/kg, male SD rats
Protocol: A pharmacokinetic (PK) study was performed in three male Sprague-Dawley (SD) rats following intravenous (IV) and oral (PO) administration of methylone at 1 mg/kg (IV) and 10 mg/kg (PO) respectively, or test compounds (prodrugs of methylone) at 10 mg/kg (PO). Parent compound (methylone) was measured in plasma.
Samples were sent for method optimization and measurement of parent compound (methylone) via unique calibration lines and following acceptance QC's. Dose formulation concentrations were also measured, and PK parameters were determined (Cmax (ng/mL), Tmax (hr), Cl (ml/min/kg), Vdss (L/kg), t½(hr), AUC0-t (ng/mL*hr), AUC0-inf (ng/mL*hr), MIRT (hr), Bioavailability ([…]) where warranted) using WinNon Lin software. Data (including bioanalytical results and assay performance) were reported in a tabulated format.
Formulation for PO Administration: For PO dosing, the prodrug was formulated in 10% DMSO/20% PEG400/70% water to a concentration of 2 mg free metabolite material/mL. This provided a dose of 10 mg free metabolite/kg when the prodrug was administered PO in 5 mL/kg dosing volumes.
Formulation for IV administration: For IV dosing, rac-methylone was formulated as solution in saline to a concentration of 0.5 mg free metabolite material/mL. This provided a dose of 1 mg free metabolite/kg when administered IV in 2 mL/kg dosing volumes.
The pharmacokinetic properties of the synthesized methylone prodrugs after oral administration in a rat model were assessed. The concentration of methylone was measured in each rat at various sampling timepoints after IV or oral administration of rac-methylone or the synthesized methylone prodrugs to rats.
Dose formulations were made at equivalent concentrations of active compound (methylone) adjusted for molecular weight of the compounds. The synthesized methylone prodrugs or analogs were dosed at 10 mg/kg oral (PO) nominal dose. Nominal doses were used in PK parameter determinations. The parent compound (methylone) was dosed at 1 mg/kg intravenous (IV) and 10 mg/kg (PO).

[1] = 0.500 h after oral dosing of the prodrug, individual animals
[2] = 0.500 h after oral dosing of the prodrug, mean
[3] = 1.00 h after oral dosing of the prodrug, individual animals
[4] = 1.00 h after oral dosing of the prodrug, mean
[5] = 2.00 h after oral dosing of the prodrug, individual animals
[6] = 2.00 h after oral dosing of the prodrug, mean
[7] = 4.00 h after oral dosing of the prodrug, individual animals
[8] = 4.00 h after oral dosing of the prodrug, mean
[9] = 7.00 h after oral dosing of the prodrug, individual animals
[10] = 7.00 h after oral dosing of the prodrug, mean
[11] = 24.0 h after oral dosing of the prodrug, individual animals
[12] = 24.0 h after oral dosing of the prodrug, mean

CC(C)COC(=O)N(C)C(C)C(=O)c1ccc2c(c1)OCO2 (centres unmarked) [Compound 1D, iso-Butyl N-[2-(1,3-benzodioxol-5-yl)-1-methyl-2-oxo-ethyl]-N-methyl-carbamate]
Plasma Concentrations of metabolite methylone [1]: BLQ (Below Lower Limit of Quantification (0.5 ng/mL)) | Plasma Concentrations of metabolite methylone [2]: BLQ (Below Lower Limit of Quantification (0.5 ng/mL)) | Plasma Concentrations of metabolite methylone [3]: BLQ (Below Lower Limit of Quantification (0.5 ng/mL)) | Plasma Concentrations of metabolite methylone [4]: BLQ (Below Lower Limit of Quantification (0.5 ng/mL)) | Plasma Concentrations of metabolite methylone [5]: BLQ (Below Lower Limit of Quantification (0.5 ng/mL)) | Plasma Concentrations of metabolite methylone [6]: BLQ (Below Lower Limit of Quantification (0.5 ng/mL)) | Plasma Concentrations of metabolite methylone [7]: BLQ (Below Lower Limit of Quantification (0.5 ng/mL)) | Plasma Concentrations of metabolite methylone [8]: BLQ (Below Lower Limit of Quantification (0.5 ng/mL)) | Plasma Concentrations of metabolite methylone [9]: BLQ (Below Lower Limit of Quantification (0.5 ng/mL)) | Plasma Concentrations of metabolite methylone [10]: BLQ (Below Lower Limit of Quantification (0.5 ng/mL)) | Plasma Concentrations of metabolite methylone [11]: BLQ (Below Lower Limit of Quantification (0.5 ng/mL)) | Plasma Concentrations of metabolite methylone [12]: BLQ (Below Lower Limit of Quantification (0.5 ng/mL))

CC(C(=O)c1ccc2c(c1)OCO2)N(C)C(=O)C(F)(F)F (centres unmarked) [Compound 2B, N-[2-(1,3-Benzodioxol-5-yl)-1-methyl-2-oxo-ethyl]-2,2,2-trifluoro-N-methyl-acetamide]
Plasma Concentrations of metabolite methylone [1]: BLQ (Below Lower Limit of Quantification (0.5 ng/mL)) | Plasma Concentrations of metabolite methylone [2]: BLQ (Below Lower Limit of Quantification (0.5 ng/mL)) | Plasma Concentrations of metabolite methylone [3]: BLQ (Below Lower Limit of Quantification (0.5 ng/mL)) | Plasma Concentrations of metabolite methylone [4]: BLQ (Below Lower Limit of Quantification (0.5 ng/mL)) | Plasma Concentrations of metabolite methylone [5]: BLQ (Below Lower Limit of Quantification (0.5 ng/mL)) | Plasma Concentrations of metabolite methylone [6]: BLQ (Below Lower Limit of Quantification (0.5 ng/mL)) | Plasma Concentrations of metabolite methylone [7]: BLQ (Below Lower Limit of Quantification (0.5 ng/mL)) | Plasma Concentrations of metabolite methylone [8]: BLQ (Below Lower Limit of Quantification (0.5 ng/mL)) | Plasma Concentrations of metabolite methylone [9]: BLQ (Below Lower Limit of Quantification (0.5 ng/mL)) | Plasma Concentrations of metabolite methylone [10]: BLQ (Below Lower Limit of Quantification (0.5 ng/mL)) | Plasma Concentrations of metabolite methylone [11]: BLQ (Below Lower Limit of Quantification (0.5 ng/mL)) | Plasma Concentrations of metabolite methylone [12]: BLQ (Below Lower Limit of Quantification (0.5 ng/mL))

CC1C(c2ccc3c(c2)OCO3)=N[C@@H](CCCCN)C(=O)N1C (some centres unmarked) [Compound 4A, dihydrochloride]
Plasma Concentrations of metabolite methylone [1]: BLQ (Below Lower Limit of Quantification (0.5 ng/mL)) | Plasma Concentrations of metabolite methylone [2]: BLQ (Below Lower Limit of Quantification (0.5 ng/mL)) | Plasma Concentrations of metabolite methylone [3]: BLQ (Below Lower Limit of Quantification (0.5 ng/mL)) | Plasma Concentrations of metabolite methylone [4]: BLQ (Below Lower Limit of Quantification (0.5 ng/mL)) | Plasma Concentrations of metabolite methylone [5]: BLQ (Below Lower Limit of Quantification (0.5 ng/mL)) | Plasma Concentrations of metabolite methylone [6]: BLQ (Below Lower Limit of Quantification (0.5 ng/mL)) | Plasma Concentrations of metabolite methylone [7]: BLQ (Below Lower Limit of Quantification (0.5 ng/mL)) | Plasma Concentrations of metabolite methylone [8]: BLQ (Below Lower Limit of Quantification (0.5 ng/mL)) | Plasma Concentrations of metabolite methylone [9]: BLQ (Below Lower Limit of Quantification (0.5 ng/mL)) | Plasma Concentrations of metabolite methylone [10]: BLQ (Below Lower Limit of Quantification (0.5 ng/mL)) | Plasma Concentrations of metabolite methylone [11]: BLQ (Below Lower Limit of Quantification (0.5 ng/mL)) | Plasma Concentrations of metabolite methylone [12]: BLQ (Below Lower Limit of Quantification (0.5 ng/mL))

CC(C)OC(=O)N(C)C(C)C(=O)c1ccc2c(c1)OCO2 (centres unmarked) [Compound 1B, iso-Propyl N-[2-(1,3-benzodioxol-5-yl)-1-methyl-2-oxo-ethyl]-N-methyl-carbamate]
Plasma Concentrations of metabolite methylone [1]: BLQ (Below Lower Limit of Quantification (0.5 ng/mL)) | Plasma Concentrations of metabolite methylone [2]: BLQ (Below Lower Limit of Quantification (0.5 ng/mL)) | Plasma Concentrations of metabolite methylone [3]: BLQ (Below Lower Limit of Quantification (0.5 ng/mL)) | Plasma Concentrations of metabolite methylone [4]: BLQ (Below Lower Limit of Quantification (0.5 ng/mL)) | Plasma Concentrations of metabolite methylone [5]: BLQ (Below Lower Limit of Quantification (0.5 ng/mL)) | Plasma Concentrations of metabolite methylone [6]: BLQ (Below Lower Limit of Quantification (0.5 ng/mL)) | Plasma Concentrations of metabolite methylone [7]: BLQ (Below Lower Limit of Quantification (0.5 ng/mL)) | Plasma Concentrations of metabolite methylone [8]: BLQ (Below Lower Limit of Quantification (0.5 ng/mL)) | Plasma Concentrations of metabolite methylone [9]: BLQ (Below Lower Limit of Quantification (0.5 ng/mL)) | Plasma Concentrations of metabolite methylone [10]: BLQ (Below Lower Limit of Quantification (0.5 ng/mL)) | Plasma Concentrations of metabolite methylone [11]: BLQ (Below Lower Limit of Quantification (0.5 ng/mL)) | Plasma Concentrations of metabolite methylone [12]: BLQ (Below Lower Limit of Quantification (0.5 ng/mL))

1-[[2-(1,3-Benzodioxol-5-yl)-1-methyl-2-oxo-ethyl]-methyl-carbamoyl]oxyethyl tetrahydropyran-4-carboxylate [Compound 6E]
Tlast (individual animal): 7.00 h | Tlast (mean): 7.00 h

CC(C(=O)c1ccc2c(c1)OCO2)N(C)C(=O)C(C)(C)C (centres unmarked) [PG, N-[2-(1,3-Benzodioxol-5-yl)-1-methyl-2-oxo-ethyl]-N-2,2-trimethyl-propanamide]
Plasma Concentrations of metabolite methylone [1]: BLQ (Below Lower Limit of Quantification (0.5 ng/mL)) | Plasma Concentrations of metabolite methylone [2]: BLQ (Below Lower Limit of Quantification (0.5 ng/mL)) | Plasma Concentrations of metabolite methylone [3]: BLQ (Below Lower Limit of Quantification (0.5 ng/mL)) | Plasma Concentrations of metabolite methylone [4]: BLQ (Below Lower Limit of Quantification (0.5 ng/mL)) | Plasma Concentrations of metabolite methylone [5]: BLQ (Below Lower Limit of Quantification (0.5 ng/mL)) | Plasma Concentrations of metabolite methylone [6]: BLQ (Below Lower Limit of Quantification (0.5 ng/mL)) | Plasma Concentrations of metabolite methylone [7]: BLQ (Below Lower Limit of Quantification (0.5 ng/mL)) | Plasma Concentrations of metabolite methylone [8]: BLQ (Below Lower Limit of Quantification (0.5 ng/mL)) | Plasma Concentrations of metabolite methylone [9]: BLQ (Below Lower Limit of Quantification (0.5 ng/mL)) | Plasma Concentrations of metabolite methylone [10]: BLQ (Below Lower Limit of Quantification (0.5 ng/mL)) | Plasma Concentrations of metabolite methylone [11]: BLQ (Below Lower Limit of Quantification (0.5 ng/mL)) | Plasma Concentrations of metabolite methylone [12]: BLQ (Below Lower Limit of Quantification (0.5 ng/mL))
